Tested on: healthy subjects
Assay: Social Value Orientation (SVO)
Type: in vivo, human
From the text: In some embodiments, the Social Value Orientation (SVO) test is utilized to evaluate the safety and/or efficacy of psilocybin. The SVO Slider Measure has 6 primary items with 9 secondary (and optional) items. All of the items have the same general form. Each item is a resource allocation choice over a well-defined continuum of joint payoffs.
The following list of outcome measures are non-exhaustive. • a. The short-term change from Baseline (Day −1 [Visit 2]) to Day 7 (Visit 5) in cognitive measures of attention, spatial and working memory and executive function was measured by a composite score of the CANTAB Panel (Spatial Working Memory [SWM], Rapid Visual Information Processing [RVP], Paired Associates Learning [PAL]). • b. The short-term change from Baseline (Day −1 [Visit 2]) to Day 7 (Visit 5) in Social Cognition Panel scales (Pictorial Empathy Test [PET], Reading the Mind in the Eyes Test [RMET], Toronto Empathy Questionnaire [TEQ], Social Value Orientation [SVO], Scale of Social Responsibility [SSR]). • c. The change from Baseline (Day −1 [Visit 2]) to Day 28 (Visit 6) in cognitive measures of attention, spatial and working memory and executive function as measured by a composite score of the CANTAB Panel (SWM, RVP, PAL). • d. The long-term change from Baseline (Day −1 [Visit 2]) to Day 84 (Visit 7) in Social Cognition Panel scales (PET, RMET, TEQ, SVO, SSR). • e. Dose-related differences between cognitive effects of psilocybin at Baseline (Day −1 [Visit 2]), Day 7 (Visit 5) and Day 28 (Visit 6), as measured by a composite score of the CANTAB Panel (SWM, RVP, PAL). • f. Dose-related differences between psychological effects of psilocybin at Baseline (Day −1 [Visit 2]), Day 7 (Visit 5) and Day 84 (Visit 7), as measured by Social Cognition Panel scales (PET, RMET, TEQ, SVO, SSR). • g. Differences in cognitive effects of psilocybin between psilocybin-naïve and experienced subjects at Baseline (Day −1 [Visit 2]), Day 7 (Visit 5) and Day 28 (Visit 6), as measured by a composite score of the CANTAB Panel (SWM, RVP, PAL). • h. Differences in Positive and Negative Affect Schedule (PANAS) after study drug administration on Day 0 (Visit 3). • i. Differences between psilocybin and placebo in the Emotion Recognition Test (ERT), Intra-Extra Dimensional Set Shift (IED), One Touch Stockings (OTS), Verbal Fluency and Digit Span Forward at Day 7 (Visit 5). • j. A composite score of the CANTAB Panel, including the following tests: • i. Spatial Working Memory (SWM) (performed at Visit 2, Visit 5, and Visit 6). • ii. Rapid Visual Information Processing (RVP) (performed at Visit 2, Visit 5, and Visit 6). • iii. Paired Associates Learning (PAL) (performed at Visit 2, Visit 5, and Visit 6). • k. Cognitive Flexibility Panel • i. Emotion Recognition Task (ERT) (performed at Visit 5). • ii. Intra-Extra Dimensional Set Shift (IED) (performed at Visit 5). • iii. One Touch Stockings (OTS) (performed at Visit 5). • iv. Verbal Fluency (performed at Visit 5). • v. Digit Span Forward (performed at Visit 5). • l. Five Dimension Altered States of Consciousness questionnaire (5D-ASC) (performed at Visit 3). • m. PANAS (performed at Visit 2 and Visit 3). • n. NEO-Five Factor Inventory (NEO-FFI) (performed at Visit 2, Visit 5, and Visit 7). • o. Symptom Checklist-90 item (SCL-90) (performed at Visit 2, Visit 5, and Visit 7). • p. Life Changes Inventory (LCI): The LCI measures changes in attitudes and values after near-death experiences often used to evaluate personal transformation following spiritually oriented experiences and practices. (performed at Visit 5 and Visit 7). • q. Social Cognition Panel scales • i. Pictorial Empathy Test (PET) (performed at Visit 2, Visit 5, and Visit 7). • ii. Reading the Mind in the Eyes Test (RMET) (performed at Visit 2, Visit 5, and Visit 7). • iii. Social Value Orientation (SVO) (performed at Visit 2, Visit 5, and Visit 7). • iv. Toronto Empathy Questionnaire (TEQ) (performed at Visit 2, Visit 5, and Visit 7). • v. […]

CN(C)CCc1c[nH]c2cccc(OP(=O)(O)O)c12 [psilocybin]
SVO angle change from baseline, LS mean difference Psilocybin 10 mg - Placebo (Day 7, MMRM): 3.4
SVO angle change from baseline, LS mean difference Psilocybin 25 mg - Placebo (Day 7, MMRM): 2.1
SVO angle change from baseline, LS mean difference Psilocybin 25 mg-10 mg (Day 7, MMRM): −1.3
SVO type change from baseline, LS mean difference Psilocybin 10 mg - Placebo (Day 7, MMRM): 0.1
SVO type change from baseline, LS mean difference Psilocybin 25 mg - Placebo (Day 7, MMRM): 0.1
SVO type change from baseline, LS mean difference Psilocybin 25 mg-10 mg (Day 7, MMRM): −0.0
SVO angle change from baseline, LS mean difference Psilocybin 10 mg - Placebo (Day 84, MMRM): 3.4
SVO angle change from baseline, LS mean difference Psilocybin 25 mg - Placebo (Day 84, MMRM): 2.4
SVO angle change from baseline, LS mean difference Psilocybin 25 mg-10 mg (Day 84, MMRM): −1.0
SVO type change from baseline, LS mean difference Psilocybin 10 mg - Placebo (Day 84, MMRM): 0.1
SVO type change from baseline, LS mean difference Psilocybin 25 mg - Placebo (Day 84, MMRM): 0.1
SVO type change from baseline, LS mean difference Psilocybin 25 mg-10 mg (Day 84, MMRM): −0.0

From patent US11865126B2, “Method for treating anxiety disorders, headache disorders, and eating disorders with psilocybin” (priority 2019, dated 2024)
